Experimental data from patent US20250032417A1, “LYOPHILIZED METOLAZONE FORMULATION FOR PARENTERAL ADMINISTRATION” (Hyloris Developments SA, priority 2023, published 2025).
Converted amounts (≈) assume the structure as drawn. “And” between values parts separate entries of the source, which are not always exact repeats. Equal entries are not always repeated.

What was measured:
[1] = Tertiary butyl alcohol-water solubility trials (visual); assay type: physicochemical
Protocol: Before initiating solvent based Lyophilization trials, a detail assessment of metolazone solubility in Water+TBA (Tertiary butyl alcohol) was carried out to identify optimum ratio of TBA:Water.

[2] = Diluent selection study: solubility of metolazone in diluent mixtures; assay type: physicochemical
Protocol: The diluent selection study was conducted to select the best diluent combination for metolazone. The following components were evaluated in combination with phosphate buffer to check the solubility of metolazone and to observe the solution clarity.
Procedure for Example no ITT-1 to 111-5: An excess amount of drug substance PSD (particle size distribution) 10 micron (60 mg) was added to the 20 mL diluent mixtures specified in Ex. III-1 to II-5 so that the theoretical concentration was 3 mg/mL. After drug addition, these samples were sonicated up to 4 hr using a sonicator at room temperature. Solution clarity and quantitative solubility were observed.

[3] = Saturation solubility of metolazone in TBA:water ratios; assay type: physicochemical; conditions: for solubility: aqueous with cosolvent or surfactant or cyclodextrin, thermodynamic from solid
Protocol: Saturation solubility study of metolazone was conducted in different water to tertiary butyl alcohol ratios ranging from 20-40% of TBA and 80-60% water. The study was conducted in triplicate.

[4] = 25° C.; cited from earlier work

Structure (SMILES): Cc1ccccc1N1C(=O)c2cc(S(N)(=O)=O)c(Cl)cc2NC1C (centres unmarked) [Metolazone, 7-chloro-1,2,3,4-tetrahydro-2-methyl-3-(2-methylphenyl)-4-oxo-6-quinazoline sulfonamide]
- Observations ([1]; Trial 1: WFI, 5.04 mg metolazone, Q.S. to 10 mL): Insoluble
- Observations ([1]; Trial 2: 20% TBA, 10.08 mg metolazone, Q.S. to 20 mL): opalescent
- Observations ([1]; Trial 3: 30% TBA, 15.12 mg metolazone, Q.S. to 20 mL): clear
- Observations ([1]; Trial 4: 40% TBA, 30.24 mg metolazone, Q.S. to 20 mL): clear
- Observations ([1]; Trial 5: 50% TBA, 30.24 mg metolazone, Q.S. to 20 mL): clear
- Observations ([1]; Trial 6: 60% TBA, 30.24 mg metolazone, Q.S. to 20 mL): clear
- Observations ([1]; Trial 7: 30% TBA, 20.16 mg metolazone, Q.S. to 20 mL): clear
- solubility ([2]; 40% PEG in buffer, aqueous with cosolvent or surfactant or cyclodextrin, thermodynamic from solid, 40% PEG in all tested buffers, API with particle size D90<10 microns, read-out: solubility): > 1200 µg/mL
- solubility ([2]; 40% PEG-400 and 0.4% Kolliphor HS-15 in Tris buffer, pH 7.5, aqueous with cosolvent or surfactant or cyclodextrin, thermodynamic from solid, Ex: III-4, 031D: 40% PEG-400 + Kolliphor HS-15 0.4% + Tris buffer pH 7.5, read-out: Solubility): 2310 µg/mL
- solubility ([2]; 40% PEG-400 and 0.4% Kolliphor HS-15 in phosphate buffer, pH 7.5, aqueous with cosolvent or surfactant or cyclodextrin, thermodynamic from solid, Ex: III-3, 031C: 40% PEG-400 + Kolliphor HS-15 0.4% + Phosphate buffer pH 7.5, read-out: Solubility): 2160 µg/mL
- solubility ([2]; 40% PEG-400 in Tris buffer, pH 7.5, aqueous with cosolvent or surfactant or cyclodextrin, thermodynamic from solid, Ex: III-2, 031B: 40% PEG-400 + Tris buffer pH 7.5, read-out: Solubility): 1280 µg/mL
- solubility ([2]; 40% PEG-400 in phosphate buffer, pH 7.5, aqueous with cosolvent or surfactant or cyclodextrin, thermodynamic from solid, Ex: III-1, 031A: 40% PEG-400 + Phosphate buffer pH 7.5, API PSD 10 micron, sonicated up to 4 hr, room temperature, read-out: Solubility): 1800 µg/mL
- solubility ([2]; Ex: III-1, 031A: 40% PEG-400 + Phosphate buffer pH 7.5, API PSD 10 micron, sonicated up to 4 hr, room temperature): 1862 µg/mL
- solubility ([2]; tertiary butyl alcohol/water for injection mixture, aqueous with cosolvent or surfactant or cyclodextrin, thermodynamic from solid, Ex: III-5, 031E: 50% Tertiary butyl alcohol and 50% Water for injection, read-out: Solubility): 3120 µg/mL
- Solubility of each trial ([3]; 028A: 20% Tertiary butyl alcohol and 80% water mixture [20:80]): 289 µg/mL and 281 µg/mL
- Solubility of each trial ([3]; 028B: 30% Tertiary butyl alcohol and 70% water mixture [30:70]): 948 µg/mL and 1044 µg/mL
- Solubility of each trial ([3]; 028C: 40% Tertiary butyl alcohol and 60% water mixture [40:60]): 2122 µg/mL and 2025 µg/mL
- slope of metolazone solubility versus TBA fraction in solvent ([3]; FIG. 4): 0.0913
- solubility ([3]; tertiary butyl alcohol/water mixture, 028A: 20% Tertiary butyl alcohol and 80% water mixture [20:80], read-out: Average solubility): 279 µg/mL
- solubility ([3]; tertiary butyl alcohol/water mixture, 028A: 20% Tertiary butyl alcohol and 80% water mixture [20:80], read-out: Solubility of each trial): 267 µg/mL
- solubility ([3]; tertiary butyl alcohol/water mixture, 028B: 30% Tertiary butyl alcohol and 70% water mixture [30:70], read-out: Average solubility): 1010 µg/mL
- solubility ([3]; tertiary butyl alcohol/water mixture, 028B: 30% Tertiary butyl alcohol and 70% water mixture [30:70], read-out: Solubility of each trial): 1050 µg/mL
- solubility ([3]; tertiary butyl alcohol/water mixture, 028C: 40% Tertiary butyl alcohol and 60% water mixture [40:60], read-out: Average solubility): 2110 µg/mL
- solubility ([3]; tertiary butyl alcohol/water mixture, 028C: 40% Tertiary butyl alcohol and 60% water mixture [40:60], read-out: Solubility of each trial): 2170 µg/mL
- solubility ([3]; tertiary butyl alcohol/water mixtures, TBA:water in the ratio of 30:70 to 40:60, read-out: solubility in solvent (TBA:water)): > 1000 µg/mL
- solubility in ethanol [4]: 9000 µg/mL (≈ 24.6 mM)
